Like-named read-outs stand apart in the source and are kept apart here.
Assay: Phase I study CXR1002-001: plasma pharmacokinetics (LC-MS/MS)
Type: in vivo, human
Settings: human, plasma, oral, person, plasma, read-out: Concentration; for concentration at 336 h: 336 hr (Day 15); for concentration at 360 h: 360 hr (Day 16); for concentration at 504 h: 504 hr (Day 22); for concentration at 528 h: 528 hr (Day 23); for concentration at 672 h: 672 hr (Day 29); for concentration at 696 h: 696 hr (Day 30); for concentration at 840 h: 840 hr (Day 36); for concentration at 864 h: 864 hr (Day 37); for concentration at 24 h: 24 hr (Day 2); for concentration at 168 h: 168 hr (Day 8)
From the text: PK samples, PD (fasting) samples, blood glucose, and blood triglyceride samples, were taken over a 6-week period.
Dose limiting toxicity (DLT) will be based on the toxicity assessments over the first 3-week period of the repeat dosing schedule. PK samples (single blood sample) were taken on the following basis: • Every 6 weeks during the repeat dosing phase • If dosing is interrupted or stopped, samples will be taken at intervals according to patient convenience • PK sampling for safety evaluation may take place at any time, as clinically indicated
Plasma samples were collected after the single 50 mg dose at the following timepoints: Pre-dose, and then 0.25, 0.5, 0.75, 1, 1.5, 2, 3, 4, 6, 24, 48, and 72 hours after administration and then once weekly at weeks 2, 3, 4, 5, and 6 (days 8, 15, 22, 29, and 36). For patients treated with the weekly repeat dose, plasma samples were collected at the following timepoints: Pre-dose and then 2, 3, 4 and 24 hours after administration for a total of 6 weeks. Thereafter a single sample was collected every 6 weeks for monitoring of exposure during long term treatment. Plasma samples were processed at site and stored at −80° C. prior to batch shipment to the analytical laboratory.

`O=C(O)C(F)(F)C(F)(F)C(F)(F)C(F)(F)C(F)(F)C(F)(F)C(F)(F)F` [CXR1002] gave a concentration at 192 h (600 mg, Patient 021, 600 mg, 192 hr (Day 9)) of 479 µM, a concentration at 336 h (600 mg, Patient 021, 600 mg) of 412 µM and a concentration at 338 h (600 mg, Patient 021, 600 mg) of 650 µM. The concentration at 339 h (600 mg, Patient 021, 600 mg) was 653 µM, the concentration at 340 h (600 mg, Patient 021, 600 mg) was 633 µM and the concentration at 360 h (600 mg, Patient 021, 600 mg) was 604 µM. The concentration at 504 h (600 mg, Patient 021, 600 mg) was 605 µM, the concentration at 506 h (600 mg, Patient 021, 600 mg) was 734 µM and the concentration at 507 h (600 mg, Patient 021, 600 mg) was 654 µM. For the same compound, the concentration at 508 h (600 mg, Patient 021, 600 mg) was 722 µM, the concentration at 528 h (600 mg, Patient 021, 600 mg) was 678 µM and the concentration at 672 h (600 mg, Patient 021, 600 mg) was 613 µM. The concentration at 674 h (600 mg, Patient 021, 600 mg) was 681 µM, the concentration at 675 h (600 mg, Patient 021, 600 mg) was 847 µM and the concentration at 676 h (600 mg, Patient 021, 600 mg) was 845 µM. It also gave a concentration at 696 h (600 mg, Patient 021, 600 mg) of 799 µM, a concentration at 840 h (600 mg, Patient 021, 600 mg) of 779 µM and a concentration at 842 h (600 mg, Patient 021, 600 mg) of 968 µM. For the same compound, the concentration at 843 h (600 mg, Patient 021, 600 mg) was 928 µM, the concentration at 844 h (600 mg, Patient 021, 600 mg) was 981 µM and the concentration at 864 h (600 mg, Patient 021, 600 mg) was 995 µM. For the same compound, the concentration at 2 h (600 mg, Patient 022, 600 mg) was 193 µM, the concentration at 3 h (600 mg, Patient 022, 600 mg) was 196 µM and the concentration at 4 h (600 mg, Patient 022, 600 mg) was 199 µM. For the same compound, the concentration at 24 h (600 mg, Patient 022, 600 mg) was 157 µM, the concentration at 168 h (600 mg, Patient 022, 600 mg) was 143 µM and the concentration at 170 h (600 mg, Patient 022, 600 mg) was 310 µM. For the same compound, the concentration at 171 h (600 mg, Patient 022, 600 mg) was 270 µM, the concentration at 172 h (600 mg, Patient 022, 600 mg) was 276 µM and the concentration at 192 h (600 mg, Patient 022, 600 mg, 192 hr (day 9)) was 298 µM. It also gave a concentration at 336 h (600 mg, Patient 022, 600 mg) of 289 µM, a concentration at 338 h (600 mg, Patient 022, 600 mg) of 433 µM and a concentration at 339 h (600 mg, Patient 022, 600 mg) of 433 µM. The concentration at 340 h (600 mg, Patient 022, 600 mg) was 405 µM, the concentration at 360 h (600 mg, Patient 022, 600 mg) was 427 µM and the concentration at 504 h (600 mg, Patient 022, 600 mg) was 426 µM. For the same compound, the concentration at 506 h (600 mg, Patient 022, 600 mg) was 441 µM, the concentration at 507 h (600 mg, Patient 022, 600 mg) was 562 µM and the concentration at 508 h (600 mg, Patient 022, 600 mg) was 519 µM. For the same compound, the concentration at 528 h (600 mg, Patient 022, 600 mg) was 596 µM, the concentration at 2 h (600 mg, Patient 023, 600 mg) was 208 µM and the concentration at 3 h (600 mg, Patient 023, 600 mg) was 233 µM. For the same compound, the concentration at 4 h (600 mg, Patient 023, 600 mg) was 236 µM, the concentration at 24 h (600 mg, Patient 023, 600 mg) was 221 µM and the concentration at 168 h (600 mg, Patient 023, 600 mg) was 204 µM. The concentration at 170 h (600 mg, Patient 023, 600 mg) was 336 µM, the concentration at 171 h (600 mg, Patient 023, 600 mg) was 337 µM and the concentration at 172 h (600 mg, Patient 023, 600 mg) was 391 µM. The concentration at 192 h (600 mg, Patient 023, 600 mg, 192 hr (day 9)) was 400 µM, the concentration at 336 h (600 mg, Patient 023, 600 mg) was 432 µM and the concentration at 338 h (600 mg, Patient 023, 600 mg) was 495 µM. It also gave a concentration at 339 h (600 mg, Patient 023, 600 mg) of 613 µM, a concentration at 340 h (600 mg, Patient 023, 600 mg) of 636 µM and a concentration at 360 h (600 mg, Patient 023, 600 mg) of 616 µM. The concentration at 2 h (600 mg, Patient 024, 600 mg) was 91.6 µM, the concentration at 3 h (600 mg, Patient 024, 600 mg) was 188 µM and the concentration at 4 h (600 mg, Patient 024, 600 mg) was 283 µM. It also gave a concentration at 24 h (600 mg, Patient 024, 600 mg) of 258 µM, a concentration at 168 h (600 mg, Patient 024, 600 mg) of 212 µM and a concentration at 170 h (600 mg, Patient 024, 600 mg) of 436 µM. For the same compound, the concentration at 171 h (600 mg, Patient 024, 600 mg) was 441 µM, the concentration at 172 h (600 mg, Patient 024, 600 mg) was 439 µM and the concentration at 192 h (600 mg, Patient 024, 600 mg, 192 hr (Day 9)) was 418 µM. The concentration at 336 h (600 mg, Patient 024, 600 mg) was 488 µM, the concentration at 338 h (600 mg, Patient 024, 600 mg) was 578 µM and the concentration at 339 h (600 mg, Patient 024, 600 mg) was 533 µM. It also gave a concentration at 340 h (600 mg, Patient 024, 600 mg) of 628 µM, a concentration at 360 h (600 mg, Patient 024, 600 mg) of 647 µM and a concentration at 504 h (600 mg, Patient 024, 600 mg) of 691 µM. For the same compound, the concentration at 506 h (600 mg, Patient 024, 600 mg) was 642 µM, the concentration at 507 h (600 mg, Patient 024, 600 mg) was 706 µM and the concentration at 508 h (600 mg, Patient 024, 600 mg) was 630 µM. It also gave a concentration at 528 h (600 mg, Patient 024, 600 mg) of 859 µM, a concentration at 672 h (600 mg, Patient 024, 600 mg) of 788 µM and a concentration at 674 h (600 mg, Patient 024, 600 mg) of 694 µM. It also gave a concentration at 675 h (600 mg, Patient 024, 600 mg) of 779 µM, a concentration at 676 h (600 mg, Patient 024, 600 mg) of 780 µM and a concentration at 696 h (600 mg, Patient 024, 600 mg) of 811 µM. It also gave a concentration at 840 h (600 mg, Patient 024, 600 mg) of 814 µM, a concentration at 842 h (600 mg, Patient 024, 600 mg) of 898 µM and a concentration at 843 h (600 mg, Patient 024, 600 mg) of 904 µM. The concentration at 844 h (600 mg, Patient 024, 600 mg) was 908 µM, the concentration at 864 h (600 mg, Patient 024, 600 mg) was 966 µM and the concentration at 2 h (750 mg, Patient 026, 750 mg) was 95.8 µM. The concentration at 3 h (750 mg, Patient 026, 750 mg) was 125 µM, the concentration at 4 h (750 mg, Patient 026, 750 mg) was 149 µM and the concentration at 24 h (750 mg, Patient 026, 750 mg) was 200 µM. For the same compound, the concentration at 168 h (750 mg, Patient 026, 750 mg) was 186 µM, the concentration at 170 h (750 mg, Patient 026, 750 mg) was 270 µM and the concentration at 171 h (750 mg, Patient 026, 750 mg) was 301 µM. The concentration at 172 h (750 mg, Patient 026, 750 mg) was 339 µM, the concentration at 192 h (750 mg, Patient 026, 750 mg, 192 hr (Day 9)) was 398 µM and the concentration at 336 h (750 mg, Patient 026, 750 mg) was 352 µM. The concentration at 338 h (750 mg, Patient 026, 750 mg) was 399 µM, the concentration at 339 h (750 mg, Patient 026, 750 mg) was 506 µM and the concentration at 340 h (750 mg, Patient 026, 750 mg) was 492 µM. For the same compound, the concentration at 360 h (750 mg, Patient 026, 750 mg) was 625 µM, the concentration at 504 h (750 mg, Patient 026, 750 mg) was 479 µM and the concentration at 506 h (750 mg, Patient 026, 750 mg) was 625 µM. It also gave a concentration at 507 h (750 mg, Patient 026, 750 mg) of 546 µM, a concentration at 508 h (750 mg, Patient 026, 750 mg) of 582 µM and a concentration at 528 h (750 mg, Patient 026, 750 mg) of 608 µM. The concentration at 672 h (750 mg, Patient 026, 750 mg) was 594 µM, the concentration at 674 h (750 mg, Patient 026, 750 mg) was 606 µM and the concentration at 675 h (750 mg, Patient 026, 750 mg) was 655 µM. The concentration at 676 h (750 mg, Patient 026, 750 mg) was 698 µM, the concentration at 696 h (750 mg, Patient 026, 750 mg) was 732 µM and the concentration at 840 h (750 mg, Patient 026, 750 mg) was 728 µM. It also gave a concentration at 842 h (750 mg, Patient 026, 750 mg) of 824 µM, a concentration at 843 h (750 mg, Patient 026, 750 mg) of 776 µM and a concentration at 844 h (750 mg, Patient 026, 750 mg) of 822 µM. It also gave a concentration at 864 h (750 mg, Patient 026, 750 mg) of 812 µM, a concentration at 2 h (750 mg, Patient 027, 750 mg) of 110 µM and a concentration at 4 h (750 mg, Patient 027, 750 mg) of 224 µM. The concentration at 24 h (750 mg, Patient 027, 750 mg) was 199 µM.
